Data reported in US20160228489A1, “PHARMACEUTICAL COMPOSITION FOR THE PREVENTION AND THE TREATMENT OF DEGENERATIVE SKIN DISORDERS ESPECIALLY CAUSED BY IONIZING RADIATIONS” (SOLOSALE S.R.L., priority 2011, published 2016).

System: Cultured skin fibroblasts exposed to UV rays
Test: cultured skin fibroblasts exposed to UV rays: intracellular GSH and cell survival
Type: cell-based
Conditions: for cell survival, % (24 h after end of irradiation) / intracellular GSH, % compared to controls (3 h after incubation): fibroblasts exposed to UV rays, 3 h incubation with formulation containing 100 μM S-acyl-glutathione; for cell survival, % (24 h after end of irradiation): UV without compound 10, unexposed control 100; for intracellular GSH, % compared to controls (3 h after incubation): UV without compound 30, unexposed control 100; for effectiveness for increase of intracellular GSH and of cell survival following exposure to ultraviolet radiation (in words): similar experiments, same concentrations

## CC/C=C\C/C=C\C/C=C\CCCCCCCC(=O)N[C@@H](CCC(=O)N[C@@H](CSC(=O)CCCCCCC/C=C\C/C=C\C/C=C\CC)C(=O)NCC(=O)O)C(=O)O [S,N-di-linolenoyl-S-glutathione]
  cell survival, % (24 h after end of irradiation): 98%
  intracellular GSH, % compared to controls (3 h after incubation): 113%

## CCCCC/C=C\C/C=C\CCCCCCCC(=O)SC[C@H](NC(=O)CC[C@H](N)C(=O)O)C(=O)NCC(=O)O [linoleyl-S-glutathione]
  cell survival, % (24 h after end of irradiation): 63%
  intracellular GSH, % compared to controls (3 h after incubation): 110%

## CCCCCCCC/C=C\CCCCCCCC(=O)SC[C@H](NC(=O)CC[C@H](N)C(=O)O)C(=O)NCC(=O)O [oleyl-S-glutathione]
  cell survival, % (24 h after end of irradiation): 35%
  intracellular GSH, % compared to controls (3 h after incubation): 85%

## CC/C=C\C/C=C\C/C=C\CCCCCCCC(=O)SCC(NC(=O)CCC(N)C(=O)O)C(=O)NCC(=O)O (stereo not shown) [linolenoyl-S-glutathione]
  cell survival, % (24 h after end of irradiation): 97%
  intracellular GSH, % compared to controls (3 h after incubation): 115%

## Cc1c(C)c2c(c(C)c1O)CCC(C)(C(=O)O)O2 (stereo not shown) [Trolox®, reference compound]
  effectiveness for increase of intracellular GSH and of cell survival following exposure to ultraviolet radiation (in words): did not produce significant effects

## CC/C=C\C/C=C\C/C=C\C/C=C\C/C=C\C/C=C\CCC(=O)O [docosahexaenoic acid]
  effectiveness for increase of intracellular GSH and of cell survival following exposure to ultraviolet radiation (in words): results similar to those obtained with linolenic and arachidonic acids

## O=C1O[C@H]([C@@H](O)CO)C(O)=C1O [ascorbic acid, reference compound]
  effectiveness for increase of intracellular GSH and of cell survival following exposure to ultraviolet radiation (in words): did not produce significant effects

## CCCCC/C=C\C/C=C\C/C=C\C/C=C\CCCC(=O)SC[C@H](NC(=O)CC[C@H](N)C(=O)O)C(=O)NCC(=O)O [arachidonoyl-S-glutathione]
  cell survival, % (24 h after end of irradiation): 100%
  intracellular GSH, % compared to controls (3 h after incubation): 115%

## vitamin E [reference compound]
  effectiveness for increase of intracellular GSH and of cell survival following exposure to ultraviolet radiation (in words): did not produce significant effects

## Oc1ccc(C=Cc2cc(O)cc(O)c2)cc1 [resveratrol, reference compound]
  effectiveness for increase of intracellular GSH and of cell survival following exposure to ultraviolet radiation (in words): did not produce significant effects

## CC/C=C\C/C=C\C/C=C\C/C=C\C/C=C\CCCC(=O)SC[C@H](NC(=O)CC[C@H](N)C(=O)O)C(=O)NCC(=O)O [eicosapentaenoic acid, eicosapentaenoyl-S-glutathione]
  effectiveness for increase of intracellular GSH and of cell survival following exposure to ultraviolet radiation (in words): results similar to those obtained with linolenic and arachidonic acids
